The source of these data is US20230033360A1, “COMPOUNDS AS CD73 INHIBITORS” (BioArdis LLC, priority 2019, published 2023).

pIC50: −log10 of the molar value. Some results are limits rather than exact numbers.

This assay deals with T1, Recombinant Human 5′-Nucleotidase (CD73) (Homo sapiens, UniProt P21589).
T1 construct: CHO derived CD73 (Trp27-Lys547), with a C-terminal 6-His tag; 6-His (C); purchased R&D 5795-EN; host or cells: CHO
T1 sequence (P21589 27-547): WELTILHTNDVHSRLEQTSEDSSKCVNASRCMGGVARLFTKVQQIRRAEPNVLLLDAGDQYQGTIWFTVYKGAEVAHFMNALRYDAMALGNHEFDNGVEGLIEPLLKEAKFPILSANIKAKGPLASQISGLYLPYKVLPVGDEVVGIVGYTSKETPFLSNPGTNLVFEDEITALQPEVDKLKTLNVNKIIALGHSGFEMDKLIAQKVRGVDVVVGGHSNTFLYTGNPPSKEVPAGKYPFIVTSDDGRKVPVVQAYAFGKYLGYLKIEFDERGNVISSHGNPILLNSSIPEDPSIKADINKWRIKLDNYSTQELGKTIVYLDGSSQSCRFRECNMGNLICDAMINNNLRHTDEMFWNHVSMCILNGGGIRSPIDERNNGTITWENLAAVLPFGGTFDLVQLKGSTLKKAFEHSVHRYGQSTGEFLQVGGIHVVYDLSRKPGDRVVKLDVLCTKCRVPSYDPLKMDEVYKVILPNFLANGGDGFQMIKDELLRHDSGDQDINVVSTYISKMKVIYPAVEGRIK
Description: CD73 Enzyme Assay (PiColorLock inorganic phosphate detection, AMP substrate). The class given is biochemical. The note with it: human CD73 0.5 nM, AMP 30 μM, 20 min at 37° C., absorbance 635 nm; read-out: Potency (IC50). The text has this: Soluble recombinant CD73 catalyzes the conversion of adenosine monophosphate (AMP) to adenosine and inorganic phosphate. The phosphate detection reagent, PiColorLock™ (Innova Bioscience, Cat #303-0125) is based on the change in absorbance of the dye malachite green in the presence of inorganic phosphate (Pi) and this property can be exploited to measure any enzyme that generates Pi. Recombinant Human 5′-Nucleotidase (CD73) (R&D #5795-EN, CHO derived CD73 (Trp27-Lys547), with a C-terminal 6-His tag) was used in the enzymatic assay. This assay, run in a 384-well plate format (Corning® NBS™ 384 well plates, Cat #3640), is a generic method for measuring inorganic phosphate. The basic assay procedure involves two steps: 1) Enzyme reaction: The CD73 enzyme (R&D #5795-EN) is incubated in the presence or absence of compounds. AMP (sigma, cat #01930) is added to start the […] reaction. 2) Detection step: Gold mix is added to the assay system, then stabilizers are added. After incubation the absorbance of the solution is read at OD 635 nm. The recorded OD signal is proportional to the enzyme activity.
Briefly, 25 μl human CD73 (0.5 nM final concentration) in the enzymatic buffer solutions (20 mM Tris, 25 mM NaCl, 1 mM MgCl2, pH 7.5, 0.005% Tween-20) were mixed with various concentrations of the test compound (dissolved in 100% DMSO). These solutions were incubated for 15 min at 25° C., and subsequently 25 μl AMP (30 μM final concentration) was added to start the reaction. The final reaction mixture of enzyme-substrate-compound was incubated for 20 min at 37° C. Meanwhile ‘Gold mix’ was prepared shortly before use by adding 1/100 vol. of accelerator to the PiColorLock™ Gold reagent. 12 μL/well of the ‘Gold mix’ was added to assay plate containing 50 μL enzyme reaction buffer and incubated at 25° C. for 5 min. 5 μL/well stabilizer was added to the assay plate and incubated at 25° C. for 30 min. The absorbance of the well solutions was measured at 635 nm on a Spark 10M instrument (TECAN).
The percent (%) inhibition at each concentration of a compound was calculated relative to the […] value in the Max and Min control wells contained within each assay plate. The Max control wells contained enzyme and substrate as 0% inhibition, and the Min control wells only contained substrate without enzyme as 100% inhibition. The concentrations and percent inhibition values for a test compound are plotted and the concentration of the compound required to achieve 50% inhibition (IC50) was determined with a four-parameter logistic dose response equation.
For orientation: pIC50 means −log10 of the IC50, conventionally taken in molar units. With `O=P(O)(O)CP(=O)(O)OC[C@H]1O[C@@H](c2cnc3c(NC4CCCC4)cc(Cl)nn23)[C@H](O)[C@@H]1O` [Example S1, (((((2R,3S,4R,5S)-5-(6-chloro-8-(cyclopentylamino)imidazo[1,2-b]pyridazin-3-yl)-3,4-dihydroxytetrahydrofuran-2-yl)methoxy)(hydroxy)phosphoryl)methyl)phosphonic acid], the pIC50 is 8.00 to 9.00.

For `C[C@H](Nc1cc(Cl)nn2c([C@@H]3O[C@H](COP(=O)(O)CP(=O)(O)O)[C@@H](O)[C@H]3O)cnc12)c1ccccc1F` [Example S2, [({[(2R,3S,4R,5S)-5-(6-chloro-8-{[(1S)-1-(2-fluorophenyl)ethyl]amino}imidazo[1,2-b]pyridazin-3-yl)-3,4-dihydroxyoxolan-2-yl]methoxy}(hydroxy)phosphoryl)methyl]phosphonic acid], the pIC50 is 8.00 to 9.00.

On to `O=P(O)(O)CP(=O)(O)OC[C@H]1O[C@@H](c2cnc3c(N4CCC[C@H]4c4ccccc4)cc(Cl)nn23)[C@H](O)[C@@H]1O` [Example S3, (((((2R,3S,4R,5S)-5-(6-chloro-8-((S)-2-phenylpyrrolidin-1-yl)imidazo[1,2-b]pyridazin-3-yl)-3,4-dihydroxytetrahydrofuran-2-yl)methoxy)(hydroxy)phosphoryl)methyl)phosphonic acid], for which the pIC50 is 8.00 to 9.00.

`O=P(O)(O)CP(=O)(O)OC[C@H]1O[C@@H](c2cnc3c(N4CC5CCCC5C4)cc(Cl)nn23)[C@H](O)[C@@H]1O` (stereo partly drawn) [Example S4, (((((2R,3S,4R,5S)-5-(6-chloro-8-(hexahydrocyclopenta[c]pyrrol-2 (1H)-yl)imidazo[1,2-b]pyridazin-3-yl)-3,4-dihydroxytetrahydrofuran-2-yl)methoxy)(hydroxy)phosphoryl)methyl) phosphonic acid]: the pIC50 was over 9.00.

For the compound `O=P(O)(O)CP(=O)(O)OC[C@H]1O[C@@H](c2cnc3c(NC4CCCCC4)cc(Cl)nn23)[C@H](O)[C@@H]1O` [Example S5, (((((2R,3S,4R,5S)-5-(6-chloro-8-(cyclohexylamino)imidazo[1,2-b]pyridazin-3-yl)-3,4-dihydroxytetrahydrofuran-2-yl)methoxy)(hydroxy)phosphoryl)methyl)phosphonic acid], the pIC50 is 8.00 to 9.00.

As for `O=P(O)(O)CP(=O)(O)OC[C@H]1O[C@@H](c2cnc3c(NC4CC5CCC4C5)cc(Cl)nn23)[C@H](O)[C@@H]1O` (stereo partly drawn) [Example S6, (((((2R,3S,4R,5S)-5-(8-(bicyclo[2.2.1]heptan-2-ylamino)-6-chloroimidazo[1,2-b]pyridazin-3-yl)-3,4-dihydroxytetrahydrofuran-2-yl)methoxy)(hydroxy)phosphoryl)methyl)phosphonic acid], the pIC50 was 8.00 to 9.00.

Turning to `O=P(O)(O)CP(=O)(O)OC[C@H]1O[C@@H](c2ncc3c(NC4CCCC4)cc(Cl)nn23)[C@H](O)[C@@H]1O` [Example S7, (((((2R,3S,4R,5S)-5-(2-chloro-4-(cyclopentylamino)imidazo[1,5-b]pyridazin-7-yl)-3,4-dihydroxytetrahydrofuran-2-yl)methoxy)(hydroxy)phosphoryl)methyl)phosphonic acid], the pIC50 is 8.00 to 9.00.

As to `O=P(O)(O)CP(=O)(O)OC[C@H]1O[C@@H](c2ncc3c(N4CCC[C@H]4c4ccccc4)cc(Cl)nn23)[C@H](O)[C@@H]1O` [Example S8, (((((2R,3S,4R,5S)-5-(2-chloro-4-((S)-2-phenylpyrrolidin-1-yl)imidazo[1,5-b]pyridazin-7-yl)-3,4-dihydroxytetrahydrofuran-2-yl)methoxy)(hydroxy)phosphoryl)methyl)phosphonic acid], the negative-log IC50 (pIC50) was 8.00 to 9.00.

In the case of `O=P(O)(O)CP(=O)(O)OC[C@H]1O[C@@H](c2ncc3c(N4CC5CCCC5C4)cc(Cl)nn23)[C@H](O)[C@@H]1O` (stereo partly drawn) [Example S9, [({[(2R,3S,4R,5S)-5-(2-chloro-4-{hexahydro-1H-cyclopenta[c]pyrrol-2-yl}imidazo[1,5-b]pyridazin-7-yl)-3,4-dihydroxyoxolan-2-yl]methoxy}(hydroxy)phosphoryl)methyl]phosphonic acid], the pIC50 was over 9.00.

Regarding `O=P(O)(O)CP(=O)(O)OC[C@H]1O[C@@H](c2csc3c(NC4CCCC4)nc(Cl)nc23)[C@H](O)[C@@H]1O` [Example S10, (((((2R,3S,4R,5S)-5-(2-chloro-4-(cyclopentylamino)thieno[3,2-d]pyrimidin-7-yl)-3,4-dihydroxytetrahydrofuran-2-yl)methoxy)(hydroxy)phosphoryl)methyl)phosphonic acid], the pIC50 is over 9.00.

In the case of `O=P(O)(O)CP(=O)(O)OC[C@H]1O[C@H](c2csc3c(NC4CCCC4)nc(Cl)nc23)[C@H](O)[C@@H]1O` [Example S11], the pIC50 is 7.00 to 8.00.

Regarding `O=P(O)(O)CP(=O)(O)OC[C@H]1OC(c2cnc3c(NC4CCOC4)cc(Cl)nn23)[C@H](O)[C@@H]1O` (stereo partly drawn) [Example S12, (((((2R,3S,4R)-5-(6-chloro-8-((tetrahydrofuran-3-yl)amino)imidazo[1,2-b]pyridazin-3-yl)-3,4-dihydroxytetrahydrofuran-2-yl)methoxy)(hydroxy)phosphoryl)methyl)phosphonic acid], the negative-log IC50 (pIC50) was 8.00 to 9.00.

With `O=P(O)(O)CP(=O)(O)OC[C@H]1OC(c2cnc3c(NC4CCC(F)(F)C4)cc(Cl)nn23)[C@H](O)[C@@H]1O` (stereo partly drawn) [Example S13, (((((2R,3S,4R)-5-(6-chloro-8-((3,3-difluorocyclopentyl)amino)imidazo[1,2-b]pyridazin-3-yl)-3,4-dihydroxytetrahydrofuran-2-yl)methoxy)(hydroxy)phosphoryl)methyl)phosphonic acid], the pIC50 was 8.00 to 9.00.

Consider `O=P(O)(O)CP(=O)(O)OC[C@H]1OC(c2cnc3c(NCc4ccccc4)cc(Cl)nn23)[C@H](O)[C@@H]1O` (stereo partly drawn) [Example S14, (((((2R,3S,4R)-5-(8-(benzylamino)-6-chloroimidazo[1,2-b]pyridazin-3-yl)-3,4-dihydroxytetrahydrofuran-2-yl)methoxy)(hydroxy)phosphoryl)methyl)phosphonic acid], for which the pIC50 is 8.00 to 9.00.

As to `O=P(O)(O)CP(=O)(O)OC[C@H]1OC(c2cnc3c(NCc4ccccc4Cl)cc(Cl)nn23)[C@H](O)[C@@H]1O` (stereo partly drawn) [Example S15, (((((2R,3S,4R)-5-(6-chloro-8-((2-chlorobenzyl)amino)imidazo[1,2-b]pyridazin-3-yl)-3,4-dihydroxytetrahydrofuran-2-yl)methoxy)(hydroxy)phosphoryl)methyl)phosphonic acid], the negative logarithm of the IC50 (pIC50) is 8.00 to 9.00.

In the case of `C[C@H](Nc1cc(Cl)nn2c(C3O[C@H](COP(=O)(O)CP(=O)(O)O)[C@@H](O)[C@H]3O)cnc12)c1cccc(F)c1` (stereo partly drawn) [Example S16, (((((2R,3S,4R)-5-(6-chloro-8-(((S)-1-(3-fluorophenyl)ethyl)amino)imidazo[1,2-b]pyridazin-3-yl)-3,4-dihydroxytetrahydrofuran-2-yl)methoxy)(hydroxy)phosphoryl)methyl)phosphonic acid], the negative-log IC50 (pIC50) was 8.00 to 9.00.

Regarding `C[C@H](Nc1cc(Cl)nn2c(C3O[C@H](COP(=O)(O)CP(=O)(O)O)[C@@H](O)[C@H]3O)cnc12)c1ccc(F)cc1` (stereo partly drawn) [Example S17, (((((2R,3S,4R)-5-(6-chloro-8-(((S)-1-(4-fluorophenyl)ethyl)amino)imidazo[1,2-b]pyridazin-3-yl)-3,4-dihydroxytetrahydrofuran-2-yl)methoxy)(hydroxy)phosphoryl)methyl)phosphonic acid], the pIC50 is over 9.00.
